Results as given in patent US20030118571A1, “Oral administration of lactobacillus for the maintenance of health in women during pregnancy and at other life stages, to reduce the risk of urogenital diseases” (priority 1999, published 2003).
Like-named read-outs stand apart in the source and are kept apart here. No end group written: not given here.

How the values were obtained:
E. coli = assay: MIC of peptides against uropathogenic microorganisms; format: cell-based, Escherichia coli HU734; settings: bactericidal if less than 0.1% of original bacteria remained viable
Ps. aeruginosa = assay: as above; format: cell-based, Pseudomonas aeruginosa AK1; settings: P. aeruginosa; bactericidal if less than 0.1% of original bacteria remained viable
Kl. pneumoniae = assay: as above; format: cell-based; settings: K. pneumoniae; bactericidal if less than 0.1% of original bacteria remained viable
Staph. epidermidis = assay: as above; format: cell-based, Staphylococcus epidermidis 1938

Procedure for L. fermentum B-54: (§1) Mean values obtained from three independent experiments are shown.
(§2) Action of the peptide was considered bactericidal if less than 0.1% of original number of bacteria remained viable following the treatment. Resistant organisms were also plated from the 100 μmol 1^−1 well to confirm presence of any inhibition.
Procedure for L. fermentum RC-14: as §1, §2
Procedure for L. plantarum RC-20: as §1, §2
Procedure for L. rhamnosus 81: as §1, §2
Procedure for L. rhamnosus GR-1: as §1, §2

SWLSKTAKKLENSAKKRISEGIAIAIQGGPR [Cecropin P1]
mode of action (E. coli): bacteriocidally | mode of action (Ps. aeruginosa): bacteriocidally | mode of action (Kl. pneumoniae): bacteriocidally | MIC (Staph. epidermidis): >100 μmol 1^−1 M | MIC (L. rhamnosus GR-1): > 100 µM | MIC (L. rhamnosus 81): > 100 µM | MIC (L. plantarum RC-20): > 100 µM | MIC (L. fermentum RC-14): > 100 µM | MIC (L. fermentum B-54): > 100 µM

FALL-39 (FALLGDFFRKSKEKIGKEFKRIVQRIKDFLRNLVPRTES; Antibacterial peptide FALL-39; UniProt P49913 132-170, looked up)
mode of action (E. coli): bactericidal | mode of action (Ps. aeruginosa): bacteriostatic | mode of action (Kl. pneumoniae): bacteriostatic | MIC (Staph. epidermidis): >100 μmol 1^−1 M | susceptibility of strain to peptide (L. rhamnosus GR-1; L. rhamnosus GR-1, highest concentration 100 μmol 1^−1): resistant | susceptibility of strain to peptide (L. rhamnosus 81; L. rhamnosus 81, highest concentration 100 μmol 1^−1): resistant | susceptibility of strain to peptide (L. plantarum RC-20; L. plantarum RC-20, highest concentration 100 μmol 1^−1): resistant | susceptibility of strain to peptide (L. fermentum RC-14; L. fermentum RC-14, highest concentration 100 μmol 1^−1): resistant | mode of action (L. fermentum B-54; L. fermentum B-54): bacteriostatically | MIC (L. fermentum B-54; L. fermentum B-54 as indicator organism): 100 µM
